Assay results as given in patent US8263623B2, “Triazol derivatives useful for the treatment of diseases” (Pfizer Inc., priority 2008, dated 2012).

Assays:
[1] = molecular target: human adrenergic β2 receptor (Homo sapiens, UniProt P07550); assay: hβ2 cAMP assay: whole cell cAMP assay in CHO cells expressing the hβ2 receptor; format: cell-based; settings: CHO cells recombinantly expressing human β2 receptor; for Emax: agonist efficacy, 100 nM Formoterol control; for EC50: agonist potency
Source text: (§1) [formula] where IC50 is the concentration of unlabelled drug which inhibits by 50% the specific radioligand binding. [L] is the free radioligand concentrations and KD and Ki are the equilibrium dissociation constants of the radioligand and unlabelled drug respectively. Functional Assessment of Agonist Potency and Efficacy Using a Whole cell cAMP Assay in CHO Cells Expressing the hβ2 Receptor Cell Culture
CHO (Chinese Hamster Ovary) cells recombinantly expressing the human adrenergic β2 receptor were maintained in growth media composed of F12:DMEM (Gibco 21331-020) containing 10% Foetal Bovine Serum (FBS: Sigma F4135), 10 μg/ml puromycin (Sigma P8833), 0.1 mg/ml Geneticin G418 (Sigma G7034) and 2 mM L-glutamine (Sigma G7513). The cells were kept in sterile conditions at 37° C., in an atmosphere containing 5% CO2.
Cells were harvested for assay when they reached 80-90% confluency using trypsin 0.25% (Sigma T4049) incubated with the cells for 5 min at 37° C. in an atmosphere containing 5% CO2. Detached cells were collected in warmed growth media (composition described above), and re-suspended in assay media (F12:DMEM (Gibco 21331-020) containing 1% Foetal Bovine Serum (FBS: Sigma F4135) and 2 mM L-glutamine (Sigma G7513)) to give a viable cell concentration of 0.25×10^6 cells/ml. 100 μl of this suspension was added to each well of a tissue culture treated 96 well view-plate (PerkinElmer 6005181) and the plate incubated in an atmosphere containing 5% CO2 at 37° C. overnight. The following day, cells were washed (4×200 μl, Skatron Skanstacker 300) with Phosphate Buffered Saline (PBS). The plates were then pat dried and the media replaced with 50 μl PBS plus 0.5 mM isobutylmethylxanthine (IBMX) (Sigma I5879) before returning to the incubator for 30 mins. The PBS plate wash procedure was repeated, followed by the addition of 50 μl PBS plus 0.5 mM IBMX and 50 μl PBS plus 2% DMSO and the plates returned to the incubator for 30 mins. Concentration ranges of test compounds were prepared in PBS containing 2% DMSO. The PBS plate wash procedure was repeated, and then 50 μl PBS plus 0.5 mM IBMX was added to the assay plates, followed by the addition of 50 μl of each compound test concentration to the appropriate well. 50 μl per well of 2% DMSO or 200 nM Formoterol was added to the control wells, giving a final assay concentration of 1% DMSO or 100 nM Formoterol. Plates were returned to the incubator for a further 30 mins. At the end of the incubation period the PBS plate wash procedure was repeated a final time as described above. The plates were pat dried and 30 μl per well PBS added followed by 40 μl per well cAMP II ED/Substrate mix and 40 μl per well cAMP II EA-Ab/lysis mix (DiscoverX 90-0034-03). The plates were then incubated in the dark for a minimum of 4 hours at room temperature. The plates were read using a Fusion plate reader (luminescence protocol, each well read for 1 second). Concentration effect curves were plotted and EC50 & Emax values determined using a 4-parameter sigmoid fit generated using an in-house data analysis programme. Formoterol and salmeterol were run in every assay as reference standards.

[2] = molecular target: human muscarinic M3 receptor (Homo sapiens, UniProt P20309); assay: hM3 competition binding assay (3H-NMS) on CHO cell membranes; settings: 24 hr at RT, IC50 corrected by Cheng-Prussoff equation
Procedure: Binding Affinity Assessment at the Human Recombinant M3 Muscarinic Receptor
Cell Pellets from CHO (Chinese Hamster Ovary) cells recombinantly expressing the human muscarinic M3 receptor were homogenised in 20 mM HEPES (pH7.4) and centrifuged at 48000×g for 20 min at 4° C. The pellet was re-suspended in buffer and the homogenisation and centrifugation steps repeated. The resulting pellet was re-suspended in 1 ml buffer per 1 ml original packed cell volume and the homogenisation step repeated. Protein estimation was carried out on the suspension and 1 ml aliquots of ˜1 mg/ml frozen at −80° C.
hM3 Competition Binding Assay Protocol
Membranes (5 μg/well) were incubated with ^3H-NMS (at a concentration 5×KD) plus/minus test compound for 24 hr at RT (room temperature) in a 1 ml polystyrene 96-well deep well block. The final assay volume was 200 μl, comprising of: 20 μl plus/minus test compound; 20 μt, ^3H-NMS (Perkin Elmer NEN 636) and 160 μl membrane solution. Total Binding was defined with 0.1% DMSO; Non-Specific Binding was defined with 1 μM Atropine. Assay buffer was 20 mM Hepes (pH 7.4).
Once all assay components were added, plates were covered and incubated at room temperature for 24 hrs with shaking. The assay was terminated by rapidly filtering through GF/B Unifilter plates pre-soaked with 0.5% polyethylenimine, using a Packard filtermate harvester, the filter plate was then washed with 3×1 ml 4° C. assay buffer. The filter plates were dried at 45° C. for 1 hour. The bottoms of the filter plates were sealed and 50 μl/well of Microscint ‘0’ added, the top of the plates were sealed with a Topseal. Following 90 mins, the plates were read on an NXT Topcount (1 minute read time per well).
The resulting data was expressed as a percentage of the specific binding (Specific binding=Total binding−Non-Specific Binding). % specific binding versus test compound concentration was plotted to determine an IC50 from a sigmoid curve using an in-house data analysis programme. IC50 values corrected to Ki values by applying the Cheng-Prussoff equation:
as §1

human adrenergic β2 receptor, sequence (P07550 whole entry): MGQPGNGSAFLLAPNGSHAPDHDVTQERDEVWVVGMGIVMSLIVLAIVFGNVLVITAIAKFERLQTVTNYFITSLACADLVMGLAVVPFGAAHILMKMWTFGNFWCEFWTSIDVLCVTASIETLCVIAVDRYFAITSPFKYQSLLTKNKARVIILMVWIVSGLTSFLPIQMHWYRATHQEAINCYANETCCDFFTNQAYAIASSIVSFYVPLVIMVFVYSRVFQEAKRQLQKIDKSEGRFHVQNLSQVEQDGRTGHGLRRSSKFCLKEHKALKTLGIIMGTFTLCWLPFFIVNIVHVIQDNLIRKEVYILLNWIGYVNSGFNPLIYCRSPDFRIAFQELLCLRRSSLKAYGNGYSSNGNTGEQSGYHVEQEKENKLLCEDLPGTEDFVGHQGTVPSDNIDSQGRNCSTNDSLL
human muscarinic M3 receptor, sequence (P20309 whole entry): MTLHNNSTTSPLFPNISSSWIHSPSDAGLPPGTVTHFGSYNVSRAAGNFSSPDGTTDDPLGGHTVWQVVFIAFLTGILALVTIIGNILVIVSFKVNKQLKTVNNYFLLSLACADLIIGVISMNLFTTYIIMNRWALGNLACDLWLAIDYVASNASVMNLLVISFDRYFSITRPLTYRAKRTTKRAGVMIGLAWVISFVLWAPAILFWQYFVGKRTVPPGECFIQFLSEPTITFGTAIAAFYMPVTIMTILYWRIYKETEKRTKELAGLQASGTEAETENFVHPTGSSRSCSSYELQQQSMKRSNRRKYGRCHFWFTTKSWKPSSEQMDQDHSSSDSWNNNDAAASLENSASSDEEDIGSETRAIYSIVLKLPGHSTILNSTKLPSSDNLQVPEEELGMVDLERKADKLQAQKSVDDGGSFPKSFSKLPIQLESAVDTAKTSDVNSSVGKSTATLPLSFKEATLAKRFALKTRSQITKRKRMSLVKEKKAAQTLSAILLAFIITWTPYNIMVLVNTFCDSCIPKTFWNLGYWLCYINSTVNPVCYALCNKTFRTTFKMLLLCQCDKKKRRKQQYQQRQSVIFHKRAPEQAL

| Structure (SMILES) | Emax [1] [%] | EC50 [1] [nM] | Ki [2] [nM] |
| --- | --- | --- | --- |
| O=c1ccc2c([C@@H](O)CNCCCCCCCCCN3CCC(Cn4cnc([C@](O)(c5ccccc5)C5CCCCC5)n4)CC3)ccc(O)c2[nH]1 [Example 1, 5-[(1R)-2-({9-[4-({3-[(R)-cyclohexyl(hydroxy)phenylmethyl]-1H-1,2,4-triazol-1-yl}methyl)piperidin-1-yl]nonyl}amino)-1-hydroxyethyl]-8-hydroxyquinolin-2(1H)-one] | 103 | 14 | 0.57 |
| O=c1ccc2c([C@@H](O)CNCCc3ccc(CCN4CCC(Cn5cnc([C@](O)(c6ccccc6)C6CCCCC6)n5)CC4)cc3)ccc(O)c2[nH]1 [Example 2, 5-[(1R)-2-{[2-(4-{2-[4-({3-[(R)-cyclohexyl(hydroxy)phenylmethyl]-1H-1,2,4-triazol-1-yl}methyl)piperdin-1-yl]ethyl}phenyl)ethyl]amino}-1-hydroxyethyl]-8-hydroxyquinolin-2(1H)-one] | 106 | 21.6 | 0.153 |
| O=c1ccc2c([C@@H](O)CNCCCCCCCCCN3CCC(Cn4cnc(C(O)(c5ccccc5)C5CCCCC5)n4)CC3)ccc(O)c2[nH]1 (stereo partly drawn) [Example 3, 5-[(1R)-2-({9-[4-({3-[cyclohexyl(hydroxy)phenylmethyl]-1H-1,2,4-triazol-1-yl}methyl)piperdin-1-yl]nonyl}amino)-1-hydroxyethyl]-8-hydroxyquinolin-2(1H)-one] | 91 | 20.6 | 0.924 |
| O=c1ccc2c([C@@H](O)CNCCCCCCCCCN3CCC(Cn4cnc(C(O)(c5ccccc5)c5ccccc5)n4)CC3)ccc(O)c2[nH]1 [Example 4, 8-hydroxy-5-[(1R)-1-hydroxy-2-({9-[4-({3-[hydroxy(diphenyl)methyl]-1H-1,2,4-triazol-1-yl}methyl)piperdin-1-yl]nonyl}amino)ethyl]quinolin-2(1H)-one] | 90 | 13 | 0.505 |
| O=c1ccc2c([C@@H](O)CNCCc3ccc(CCN4CCC(Cn5cnc(C(O)(c6ccccc6)c6ccccc6)n5)CC4)cc3)ccc(O)c2[nH]1 [Example 5, 8-hydroxy-5-[(1R)-1-hydroxy-2-{[2-(4-{2-[4-({3-[hydroxy(diphenyl)methyl]-1H-1,2,4-triazol-1-yl}methyl)piperidin-1-yl]ethyl}phenyl)ethyl]amino}ethyl]quinolin-2(1H)-one] | 95 | 116 | 2.49 |
